“And” between values parts separate entries of the source, which are not always exact repeats. Equal entries are not always repeated. “Also recorded” adds a separate entry of the source. Values belong to the compound of their own block, whether it stands above or below them.
Tests used:
[1] = Storage modulus of HELP hydrogel with competitor, oscillatory shear rheology; assay type: physicochemical; conditions: for HELP modulus: 0 mM control ~3 kPa; for storage modulus (G) of HELP hydrogel, dose response: FIG. 11C, D, increasing competitor concentration, n=3; for fold change in modulus: HELP system, relative to no competitor
Description: The term “storage modulus” as used herein may be used interchangeably with the term “stiffness”. Storage modulus refers to the ratio of the elastic stress to strain and indicates a material's ability to store energy. The storage modulus may be measured using oscillatory shear rheology
The storage modulus of the HELP hydrogels were measured using oscillatory shear rheology.
The HELP hydrogel composition was 1 wt % ELP-Hydrazine (fully modified) and 1 wt % HA-Aldehyde (12% modified). Hydrazinoacetic acid was added to HELP hydrogels in four separate final concentrations, 0 mM, 5 mM, 10 mM and 20 mM and the storage modulus was measured over the course of 30 minutes.
The catalyst agent was 2-(Aminomethyl)benzimidazole and the competitor agent was butyraldehyde. The competitor agent was added at HELP hydrogels at a final concentration of 10 mM and the catalyst agent was added to a final concentration of 0.10 and 25 mM. The composition of the HELP hydrogel was 2 wt % ELP-Hydrazine (fully modified) and 1 wt % HA-Benzaldehyde (30% modified).
To initially assess the impact of a competitor on hydrogel stiffness, it was proposed that the effect on crosslinking density will depend upon the relative strength of the two competing reactions: (1) crosslinking-site and competitor and (2) crosslinking reaction (FIG. 11A). It was predict that as the relative strength of the competitor reaction (Keq^1) to crosslinking reaction (Keq^2) increases, there will be a greater disruption of crosslinks. To validate this, the impact of competitor Keq on the modulus of HELP formed from precursor solutions of HA-BZA and ELP-HYD at a 1:1 BZA to HYD ratio was determined. To minimize off-target reactions, competitors were added to the precursors solution that has the same functionality, i.e., hydrazine competitors added to ELP-HYD, aldehyde competitors added to HA-BZA. At 10 mM of competitor, which represents a ratio of 4:3 of competitor to crosslinking sites, all competitors led to a significant decrease in the HELP modulus compared to the 0 mM control (FIG. 11B). Based upon the hypothesis that the relative strength of the reactions will dictate crosslinking disruption, a larger decrease in modulus with competitors that result in an aromatic hydrazone (Keq^1/Keq^2˜10^0), double aromatic hydrazone (Keq^1/Keq^2˜10^1) and alkyl hydrazone (Keq^1/Keq^2˜10^2) should be seen.
The hydrogel modulus response to increasing concentrations of competitors was next examined. The decrease in modulus is dependent upon the concentration of the competitor. To examine this dose-dependent response, the competitors with the lowest (HydAA, aromatic hydrazone) and highest (Butanal, alkyl hydrazone) Keq were selected. Increasing the concentration of HydAA from 5, 10, and 20 mM further reduced the crosslinking density and modulus (2.3, 1.8, 1.3 kPa) in a concentration dependent manner (FIG. 11C). A similar response with Butanal was seen as we increase the concentration from 5 to 10 mM (FIG. 11D).

[2] = Gelation time of HELP hydrogel with competitor; assay type: physicochemical; conditions: for gelation time: 0 mM 42.3±5.5 s; for effect on gelation time of HELP hydrogel: FIG. 12A, B, n=3-4, one-way ANOVA
Description: The HELP hydrogel composition was 2 wt % ELP-Hydrazine (fully modified) and 1 wt % HA-Benzaldehyde (30% modified).
Based upon the observed and predicted effect of the competitor on hydrogel modulus, it was reasoned that transient disruption of crosslinking would alter gelation kinetics. The competitor kinetics delays the time to reach a percolated polymer network in a dose-dependent manner. Addition of a high concentration (20 mM) of a relatively slow reacting competitor Keq competitor (HydAA, k1˜10^−1, Keq˜ 10^3) results in a modest and nonsignificant increase in gelation time (tg=48.3±3.1 s), though it softened the hydrogel modulus from ˜3 kPa to 1.3 kPa. (FIG. 12A). […] The difference in gelation times can be attributed to the difference in forward reaction rate and equilibrium constants of the competitors, which both differ by over 2 orders of magnitude between Butanal and HydAA.

[3] = Theoretical half-time to equilibrium of the competitor reaction; conditions: 10 mM; calculated from kinetic reaction parameters
Description: Using the kinetic reaction parameters, the theoretical half-time (t1/2) to was calculated to reach equilibrium of the competitor reaction at a concentration of 10 mM (FIG. 12C). […] This is consistent with the rationale that Butanal increases the gelation time because it is capable of rapidly reacting with the crosslinking sites, preventing them from participating in gelation. […] Using a simplified half-time model of just the competitor reaction, the user is able to qualitatively capture the measured gelation times of the complex competitor and crosslinking hydrogel system.

[4] = Hydrazone reaction rates of competitors with model reactants, UV spectroscopy; assay type: physicochemical; conditions: for k1 (forward reaction rate) / k−1 (×10^−4) (reverse reaction rate): 50 μM competitor and 50 μM model reactant (BZA or HydAA), saline solution, 25° C., mean (standard deviation), n = 4; for k1 / k−1: unit not given
Description: To quantify the extent that side groups impact reaction parameters, the forward (k1) and reverse (k−1) reaction rates were measured for each competitor at 50 μM (Table 2). For these reactions, the complementary reactant was chosen to be 50 μM of either benzaldehyde (BZA) or hydrazinoacetic acid (HydAA), because they are the crosslinking functionalities of HELP, and can provide key insight into DCC interactions without the complexity of the full HA and ELP polymers. (Winne, Leibler et al. 2019) The formation of a hydrazone bond was observed via absorbance with UV spectroscopy and converted to a concentration over time. An analytical solution to a second order reaction rate, assuming equal concentrations of reactants, was fit to the concentration as a function of time. (Dirksen, Dirksen et al. 2006, Mckinnon, Domaille et al. 2014)

[5] = HELP hydrogel homogeneity by fluorescent dye distribution; assay type: physicochemical; conditions: 10 mM competitor vs rapidly gelling HELP without competitor; stiff (~3.5 kPa) HELP
Description: We propose that by using a competitor to increase gelation times, we can overcome the limitations of rapidly gelling hydrazone-crosslinked HELP. We compared the macroscopic structure of a stiff (˜3.5 kPa) HELP formulation with and without Butanal. Without a competitor, the hydrogel rapidly gelled, resulting in a heterogenous hydrogel with nonuniform distribution of polymer. However, addition of 10 mM Butanal allowed for adequate mixing of the polymers and a homogenous hydrogel (FIG. 12E). To quantitatively evaluate the heterogeneity of HELP hydrogels with or without a competitor, we added a fluorescent dye and compared the spatial distribution of the fluorescent signal. […] By using a rapidly reaction competitor to slow down gelation kinetics, we have developed a solution to the challenge of inhomogeneous DCC hydrogels, and produced a uniform HELP hydrogel.

[6] = 10 mM competitor, HA-BZA and ELP-HYD at 1:1 BZA to HYD

SMILES: O=Cc1ccccc1 [Benzaldehyde, benzaldehyde]
theoretical half-time (t1/2) to reach equilibrium of the competitor reaction [3]: 4.23 ± 1.33 min | k1 (forward reaction rate) [4]: 0.276 (0.070) M^−1 s^−1 | k−1 (×10^−4) (reverse reaction rate) [4]: 1.71 (0.280) ×10^−4 s^−1

SMILES: NNCCO [Hydrazinoethanol, 2-hydrazinoethanol]
k1 (forward reaction rate) [4]: 0.690 (0.301) M^−1 s^−1 | k−1 (×10^−4) (reverse reaction rate) [4]: 1.12 (0.469) ×10^−4 s^−1 | k1 [4]: ~10^−1 | k−1 [4]: ~10^−4

SMILES: NCc1nc2ccccc2[nH]1 [2-(Aminomethyl)benzimidazole]
storage modulus of HELP hydrogels with catalyst and competitor ([1]; FIG. 9, catalyst 0.10 and 25 mM with 10 mM butyraldehyde, 24 hours diffusion into preformed hydrogel, 2 wt % ELP-Hydrazine, 1 wt % HA-Benzaldehyde (30% modified)): reduced in a dose-dependent manner

Now from value to compound, other results behind:

HELP modulus ([1]; 5 mM competitor): 2.3 kPa | HELP modulus ([1]; 10 mM competitor, HA-BZA and ELP-HYD at 1:1 BZA to HYD, listed as HydAA): 1.75±0.3 kPa and 1.8 kPa and 1.75 kPa | HELP modulus ([1]; 20 mM competitor): 1.3 kPa | storage modulus (G) of HELP hydrogel, dose response [1]: dose-dependent decrease | fold change in modulus [1]: 0.6 fold | gelation time ([2]; 10 mM competitor): did not significantly impact gelation | gelation time (tg) ([2]; 20 mM HydAA (slow-reacting competitor)): 48.3 ± 3.1 s | increase of gelation time ([2]; FIG. 4, 10 mM, 2 wt % ELP-Hydrazine, 1 wt % HA-Benzaldehyde (30% modified)): approximately 30 seconds | effect on gelation time of HELP hydrogel [2]: does not significantly increase
SMILES: NNCC(=O)O [Hydrazinoacetic acid, hydrazinoacetic acid]
storage modulus of HELP hydrogels, dose response ([1]; FIG. 2, 0, 5, 10 and 20 mM): reduced the storage modulus in a dose dependent manner | time to reach the plateau storage modulus ([1]; FIG. 3, 1 wt % ELP-Hydrazine, 1 wt % HA-Aldehyde (12% modified), 0, 5, 10, 20 mM): increased the time to reach the plateau storage modulus | storage modulus of HELP hydrogels over time ([1]; FIG. 3, 1 wt % ELP-Hydrazine, 1 wt % HA-Aldehyde (12% modified), 0, 5, 10, 20 mM, 30 minutes): reduced the storage modulus of HELP hydrogels in a dose dependent manner | gelation time, dose response ([2]; FIG. 4, 0, 5, 10 mM, 2 wt % ELP-Hydrazine, 1 wt % HA-Benzaldehyde (30% modified)): increased the gelation time in a dose dependent manner | theoretical half-time (t1/2) to reach equilibrium of the competitor reaction [3]: 4.23 ± 1.33 min | k1 (forward reaction rate) [4]: 0.276 (0.070) M^−1 s^−1 | k−1 (×10^−4) (reverse reaction rate) [4]: 1.71 (0.280) ×10^−4 s^−1 | k1 [4]: ~10^−1 | k−1 [4]: ~10^−4

variance of fluorescence intensity (hydrogel heterogeneity) [5]: significantly lower variance | HELP modulus ([1]; 5 mM competitor): 1.75 kPa | HELP modulus [1, 6]: 0.29±0.2 kPa | storage modulus (G) of HELP hydrogel, dose response [1]: dose-dependent decrease | fold change in modulus [1]: 0.1 fold | increase of gelation time ([2]; 5 mM competitor): ~1.7 fold | gelation time ([2]; 5 mM competitor): 74.8 ± 10.0 s | gelation time ([2]; 10 mM competitor): 92.3 ± 5.1 s
SMILES: CCCC=O [Butyraldehyde, butyraldehyde]
HELP hydrogel formation ([1]; 20 mM competitor (2.7× crosslinking sites), listed as Butanal): disrupt formation of a hydrogel; also recorded: inhibition of HELP gel formation | effect on gelation time of HELP hydrogel [2]: significantly increases gelation time in a dose-dependent manner | theoretical half-time (t1/2) to reach equilibrium of the competitor reaction [3]: 0.0265 ± 0.00233 min | k1 (forward reaction rate) [4]: 59.9 (5.49) M^−1 s^−1 | k−1 (×10^−4) (reverse reaction rate) [4]: 4.49 (1.07) ×10^−4 s^−1 | k−1 [4]: 4.49±1.07×10^−4 | k1 ([4]; listed as Butanal): 59.9±5.49 | k1 ([4]; listed as Butunal): ~10^1

HELP modulus [1, 6]: 0.86±0.04 kPa
SMILES: NNc1ccc(C(=O)O)cc1 [Hydrazinobenzoic acid, 4-hydrazinobenzoic acid]
k1 (forward reaction rate) [4]: 2.10 (0.40) M^−1 s^−1 | k−1 (×10^−4) (reverse reaction rate) [4]: 1.00 (0.077) ×10^−4 s^−1 | k1 [4]: 2.10±0.400 | k−1 [4]: 1.00±0.077×10^−4
